Measurements from patent US11066392B2, “Inhibitors of indoleamine 2,3-dioxygenase and methods of their use” (BRISTOL-MYERS SQUIBB COMPANY, priority 2017, dated 2021).

target: indoleamine 2,3-dioxygenase (IDO) (Homo sapiens, UniProt P14902); experiment: HeLa cell-based indoleamine 2,3-dioxygenase (IDO) assay (kynurenine production, IFNγ-stimulated); conditions: HeLa cells, IFNγ 25 ng/mL, 48 hour incubation; read-out: IDO Hela IC50
Method: Assessment of inhibitor activity in HeLa cell-based indoleamine 2,3-dioxygenase (IDO) assay. HeLa (ATCC® CCL-2) cells were obtained from the ATCC® and cultured in Dulbecco's Modified Eagle Medium supplemented with 4.5 g/L glucose, 4.5 […] sodium pyruvate (#10-013-CV, Corning), 2 mM L-alanyl-L-glutamine dipeptide (#35050-061, Gibco), 100U/mL penicillin, 100 μg/mL streptomycin (#SV30010, HyClone) and 10% fetal bovine serum (#SH30071.03 HyClone). Cells were maintained in a humidified incubator at 37° C. in 5% CO2. […] After 24 hours, the media was aspirated and replaced with media containing IFNγ (#285-IF/CF, R&D Systems) at a final concentration of 25 ng/mL. A serial dilution of each test compound was added to the cells in a total volume of 200 μL of culture medium. After a further 48 hour incubation, 170 μL of supernatant was transferred from each well to a fresh 96-well plate. 12.1 μL of 6.1N trichloroacetic acid (#T0699, Sigma-Aldrich) was added to each well and mixed, followed by incubation at 65° C. for 20 minutes to hydrolyze N-formylkynurenine, the product of indoleamine 2,3-dioxygenase, to kynurenine. The reaction mixture was then centrifuged for 10 mins at 500×g to sediment the precipitate. 100 μL of the supernatant was transferred from each well to a fresh 96-well plate. 100 μl of 2% (w/v) p-dimethylaminobenzaldehyde (#15647-7, Sigma-Aldrich) in acetic acid (#A6283, Sigma-Aldrich) was added to each well mixed and incubated at room temperature for 20 mins. Kynurenine concentrations were determined by measuring absorbance at 480 nm and calibrating against an L-kynurenine (#K8625, Sigma-Aldrich) standard curve using a SPECTRAMAX® M2e microplate reader (Molecular Devices). The percentage activity at each inhibitor concentration was determined and IC50 values assessed using nonlinear regression. Activity for compounds described herein is provided in Table 1, wherein potency levels are provided as follows: (Potency: IDO IC50: […])

Chain of indoleamine 2,3-dioxygenase (IDO) (P14902 whole entry): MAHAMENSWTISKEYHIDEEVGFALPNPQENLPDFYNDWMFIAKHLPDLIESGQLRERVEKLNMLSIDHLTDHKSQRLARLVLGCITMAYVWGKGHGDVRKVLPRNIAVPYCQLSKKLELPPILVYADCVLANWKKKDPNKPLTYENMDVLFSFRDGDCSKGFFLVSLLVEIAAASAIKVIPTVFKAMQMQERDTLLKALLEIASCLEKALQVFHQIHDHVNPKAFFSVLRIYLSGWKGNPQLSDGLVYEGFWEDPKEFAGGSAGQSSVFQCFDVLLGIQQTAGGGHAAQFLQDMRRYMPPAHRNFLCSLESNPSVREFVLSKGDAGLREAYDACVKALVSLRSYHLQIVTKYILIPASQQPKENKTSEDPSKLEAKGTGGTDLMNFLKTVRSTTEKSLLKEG

In order of falling IC50:
1. CCOC[C@@H](NC(=O)c1ccc(OC)nc1)[C@H]1CC[C@@H](c2ccnc3ccc(C(F)(F)F)cc32)CC1 (single isomer, unassigned) [Example 13d, N-(2-Ethoxy-1-(4-(6-(trifluoromethyl)quinolin-4-yl)cyclohexyl)ethyl)-6-methoxynicotinamide]  940 nM
2. CCC(NC(=O)c1ccc(OC)nc1)C1CCC(c2ccnc3c(C(F)(F)F)cccc23)CC1 (single isomer, unassigned) [Example 18a, 6-Methoxy-N-(1-((1s,4s)-4-(8-(trifluoromethyl)quinolin-4-yl)cyclohexyl)propyl)nicotinamide]  830 nM
3. COc1ccc(C(=O)N[C@H](CC2(C)COC2)[C@H]2CC[C@@H](c3ccnc4ccc(C(F)(F)F)cc43)CC2)cn1 (single isomer, unassigned) [Example 17b, 6-Methoxy-N-(2-(3-methyloxetan-3-yl)-1-(4-(6-(trifluoromethyl)quinolin-4-yl)cyclohexyl)ethyl)nicotinamide]  350 nM
4. CCC(NC(=O)c1ccc(OC)nc1)C1CCC(c2ccnc3ccc(C(F)(F)F)cc23)CC1 (single isomer, unassigned) [Example 11a, 6-Methoxy-N-(1-((1s,4s)-4-(6-(trifluoromethyl)quinolin-4-yl)cyclohexyl)propyl)nicotinamide]  100 nM
5. COCC(NC(=O)c1ccc(OC)nc1)C1CCC(c2ccnc3ccc(C(F)(F)F)cc23)CC1 (single isomer, unassigned) [Example 12a, 6-Methoxy-N-(2-methoxy-1-((1s,4s)-4-(6-(trifluoromethyl)quinolin-4-yl)cyclohexyl)ethyl)nicotinamide]  80 nM
6. CCOC[C@@H](NC(=O)c1ccc(OC)nc1)[C@H]1CC[C@@H](c2ccnc3ccc(C(F)(F)F)cc32)CC1 (single isomer, unassigned) [Example 13a, N-(2-Ethoxy-1-(4-(6-(trifluoromethyl)quinolin-4-yl)cyclohexyl)ethyl)-6-methoxynicotinamide]  80 nM
7. COCCOCC(NC(=O)c1cnc(OC)nc1)C1CCC(c2ccnc3ccc(F)cc23)CC1 (single isomer, unassigned) [Example 16a, N-(1-((1s,4s)-4-(6-Fluoroquinolin-4-yl)cyclohexyl)-2-(2-methoxyethoxy)ethyl)-2-methoxypyrimidine-5-carboxamide]  40 nM
8. CCC(NC(=O)c1ccc(OC)nc1)C1CCC(c2ccnc3ncccc23)CC1 (mixture of isomers) [Example 52, (+/−)-Cis and trans N-(1-(4-(1,8-naphthyridin-4-yl)cyclohexyl)propyl)-6-methoxynicotinamide]  30 nM
9. COc1ccc(C(=O)N[C@H](CC2(C)COC2)[C@H]2CC[C@@H](c3ccnc4ccc(C(F)(F)F)cc43)CC2)cn1 (single isomer, unassigned) [Example 17a, 6-Methoxy-N-(2-(3-methyloxetan-3-yl)-1-(4-(6-(trifluoromethyl)quinolin-4-yl)cyclohexyl)ethyl)nicotinamide]  30 nM
10. CCC(NC(=O)c1ccc(OC)nc1)[C@H]1CC[C@@H](c2ccnc3c(OC)cc(C(F)(F)F)cc32)CC1 (mixture of isomers) [Example 44, (±)-6-methoxy-N-(1-((cis)-4-(8-methoxy-6-(trifluoromethyl)quinolin-4-yl)cyclohexyl)propyl)nicotinamide]  10 nM
11. COc1ccc(C(=O)NC(CC#N)[C@H]2CC[C@@H](c3ccnc4ccc(F)cc43)CC2)cn1 (mixture of isomers) [Example 54, Cis or trans-N-(2-cyano-1-((1s,4s)-4-(6-fluoroquinolin-4-yl)cyclohexyl)ethyl)-6-methoxynicotinamide]  10 nM
12. COCCOCC(NC(=O)c1ccc(OC)nc1)C1CCC(c2ccnc3ccc(F)cc23)CC1 (single isomer, unassigned) [Example 15b, N-(1-((1s,4s)-4-(6-Fluoroquinolin-4-yl)cyclohexyl)-2-(2-methoxyethoxy)ethyl)-6-methoxynicotinamide]  10 nM
13. CCC(NC(=O)c1ccc(OC)nc1)C1CCC(c2ccnc3cc(C(F)(F)F)ccc23)CC1 (single isomer, unassigned) [Example 19b, 6-Methoxy-N-(1-((1s,4s)-4-(7-(trifluoromethyl)quinolin-4-yl)cyclohexyl)propyl)nicotinamide]  10 nM

same assay, conditions: HeLa cells; potency class; read-out: Patent Potency Hela IC50 A < 10 nM, B > 10 nM, C > 100 nM

Compared with CCC(NC(=O)c1ccc(OC)nc1)C1CCC(c2ccnc(F)c2C)CC1 (mixture of isomers) [Example 55, (+/−)-Cis and trans-N-(1-(4-(2-fluoro-3-methylpyridin-4-yl)cyclohexyl)propyl)-6-methoxynicotinamide], CCC(NC(=O)c1ccc(OC)nc1)[C@H]1CC[C@H](c2ccnc(F)c2C)CC1 (mixture of isomers) [Example 67, (±)-N-(1-((1r,4r)-4-(2-fluoro-3-methylpyridin-4-yl)cyclohexyl)propyl)-6-methoxynicotinamide] is higher in IC50: under 10 nM for the first, over 100 nM for the second.

[2H]C([2H])([2H])Oc1ccc(C(=O)NC(CC)[C@H]2CC[C@@H](c3ccnc(OC)c3C(F)F)CC2)cn1 (mixture of isomers) [Example 65, (±)-N-(1-((1s,4s)-4-(3-(difluoromethyl)-2-methoxypyridin-4-yl)cyclohexyl)propyl)-6-(methoxy-d3)nicotinamide] and CC[C@@H](NC(=O)c1ccc(OC)nc1)[C@H]1CC[C@@H](c2ccnc3c(F)cccc32)CC1 (relative stereo) [Example 59b, N-(1-(4-(8-fluoroquinolin-4-yl)cyclohexyl)propyl)-6-methoxynicotinamide] cannot be ordered by IC50: under 10 nM for the first, under 10 nM for the second.

First: CCC(NC(=O)c1ccc(OC)nc1)C1CCC(c2ccnc3ccc(C(F)(F)F)cc23)CC1 (single isomer, unassigned) [Example 11b, 6-Methoxy-N-(1-((1s,4s)-4-(6-(trifluoromethyl)quinolin-4-yl)cyclohexyl)propyl)nicotinamide]
Second: CCC(NC(=O)c1ccc(OC)nc1)C1CCC(c2ccnc3cc(C(F)(F)F)ccc23)CC1 (single isomer, unassigned) [Example 19a, 6-Methoxy-N-(1-((1s,4s)-4-(7-(trifluoromethyl)quinolin-4-yl)cyclohexyl)propyl)nicotinamide]
The IC50 of the first is lower: under 10 nM for the first, over 100 nM for the second. The first is the more potent here.

COCC(NC(=O)c1ccc(OC)nc1)C1CCC(c2ccnc3ccc(C(F)(F)F)cc23)CC1 (single isomer, unassigned) [Example 12b, 6-Methoxy-N-(2-methoxy-1-((1s,4s)-4-(6-(trifluoromethyl)quinolin-4-yl)cyclohexyl)ethyl)nicotinamide] and CCOC[C@@H](NC(=O)c1ccc(OC)nc1)[C@H]1CC[C@@H](c2ccnc3ccc(C(F)(F)F)cc32)CC1 (single isomer, unassigned) [Example 13b, N-(2-Ethoxy-1-(4-(6-(trifluoromethyl)quinolin-4-yl)cyclohexyl)ethyl)-6-methoxynicotinamide] cannot be ordered by IC50: under 10 nM for the first, under 10 nM for the second.

COCCOCC(NC(=O)c1ccc(OC)nc1)C1CCC(c2ccnc3ccc(F)cc23)CC1 (single isomer, unassigned) [Example 15a, N-(1-((1s,4s)-4-(6-Fluoroquinolin-4-yl)cyclohexyl)-2-(2-methoxyethoxy)ethyl)-6-methoxynicotinamide] and COCCOCC(NC(=O)c1cnc(OC)nc1)C1CCC(c2ccnc3ccc(F)cc23)CC1 (single isomer, unassigned) [Example 16b, N-(1-((1s,4s)-4-(6-Fluoroquinolin-4-yl)cyclohexyl)-2-(2-methoxyethoxy)ethyl)-2-methoxypyrimidine-5-carboxamide] cannot be ordered by IC50: under 10 nM for the first, under 10 nM for the second.

Compared with COc1ccc(C(=O)N[C@H](CC2(C)COC2)[C@H]2CC[C@@H](c3ccnc4ccc(C(F)(F)F)cc43)CC2)cn1 (single isomer, unassigned) [Example 17c, 6-Methoxy-N-(2-(3-methyloxetan-3-yl)-1-(4-(6-(trifluoromethyl)quinolin-4-yl)cyclohexyl)ethyl)nicotinamide], CCC(NC(=O)c1ccc(OC)nc1)C1CCC(c2ccnc3c(C(F)(F)F)cccc23)CC1 (single isomer, unassigned) [Example 18b, 6-Methoxy-N-(1-((1s,4s)-4-(8-(trifluoromethyl)quinolin-4-yl)cyclohexyl)propyl)nicotinamide] is lower in IC50: over 100 nM for the first, under 10 nM for the second. The second is the more potent here.

In the case of COc1ccc(C(=O)N[C@H](CC2(C)COC2)[C@H]2CC[C@@H](c3ccnc4ccc(C(F)(F)F)cc43)CC2)cn1 (single isomer, unassigned) [Example 17d, 6-Methoxy-N-(2-(3-methyloxetan-3-yl)-1-(4-(6-(trifluoromethyl)quinolin-4-yl)cyclohexyl)ethyl)nicotinamide], the IC50 is reported as over 100 nM.
